Results as given in patent US4021566A, “2,5-Dimethyl-1-pyrrole-lower-alkanecarboxamides” (Sterling Drug Inc., priority 1975, dated 1977).
Where “and” joins values, the source holds several entries; their conditions need not be identical. Equal values may be shown once.

Legend:
[1] = tested on: gastric secretion; assay: Anti-secretory activity, pylorus ligation method of Shay et al.; assay type: in vivo, male albino Wistar rats; conditions: rat; for Anti-Secretory % Inhibition of Free Acid / Anti-Secretory pH: oral; for Anti-Secretory % Inhibition of Free Acid: vs control; for Anti-Secretory pH: pH of gastric fluid
Protocol: In standard biological test procedures, described generally by Shay et al., Gastroenterology 5, 43 (1945) and 26, 906 (1954) and by Selmici et al., Acta Physiol. Acad. Sci. Hung. […] Anti-secretory activity was determined in male albino Wistar rats weighing approximately 180 g. using the method described by Shay et al. which is described as follows: the rats were divided into medicated groups of at least five rats each and control groups of ten rats. The rats were medicated orally once daily for two days prior to stomach ligation and once again immediately following ligation. All drugs were administered as the free base, and control rats received only the vehicle of medication. The rats were housed individually in wire cages, food was withdrawn forty-eight hours prior to surgery, and water was withdrawn at the time of surgery. Laparotomy was performed under light ether anesthesia, the pyloric-duodenal junction was ligated, and the wound was closed with metal clips and sprayed with a protective surgical dressing. Five hours following surgery, the rats were sacrificed, the stomach was removed, and the gastric juice collected. The gastric fluid was centrifuged, and total volume, color, and volume of solids were recorded. The pH of the gastric fluid was then determined on a Beckamn pH meter, and the "free" and "total" hydrochloric acid content of each gastric sample was determined by titrating an aliquot of the gastric fluid (diluted to approximately 10 ml. with distilled water) by titrating with 0.1N sodium hydroxide against Toepfers reagent and phenolphthalein, respectively. By determining the milliequivalents of hydrochloric acid per milliliter of gastric juice and knowing the total volume of gastric juice secreted by each rat, the total acid output can be calculated. Since pH is a function of "free" acid, the activity of the test compounds can be evaluated by comparison of the mean "free" acid of medicated rats with the mean "free" acid of the controls, and the activity can thus be expressed in terms of percent inhibition of free acid.

[2] = tested on: reserpine-induced stomach ulceration; assay: Anti-ulcer activity, reserpine-induced anti-ulcer test method of Selmici et al.; assay type: in vivo, male, albino, Sprague-Dawley rats; conditions: rat, oral, reserpine 5.0 mg/kg i.m., vs control
Protocol: The anti-ulcer activity of the compounds was determined using the reserpine-induced anti-ulcer test method, described by Selmici et al., which is described briefly as follows: male, albino, Sprague-Dawley rats, weighing approximately 300 g., were divided into medicated and control groups of at least five rats each, and one positive control group of five rats medicated with a known drug at the active dose was run with each experiment. The rats were medicated forty-eight, twenty-four, and one hour before receiving an injection of reserpine. All test drugs were administered orally in terms of base, and the control rats received only the vehicle of medication. The rats were housed individually in wire cages, and food was withdrawn twenty-four hours prior to injection of reserpine, while water was allowed ad libitum. One hour following the third medication, 5.0 mg. of reserpine per kilogram of body weight in a concentration of 5 mg./ml. was injected intramuscularly in each rat. Eighteen hours after injection the rats were sacrificed, their stomachs removed, opened along the greater curvature, rinsed in warm saline, and pinned to a cork board for gross observation. The stomachs were examined for the number and size of ulcerations located in the glandular portion of the stomach with the aid of a one millimeter grid ocular with a 10x dissecting microscope. The degree of ulceration was arbitrarily graded according to the number and size of the ulcers as follows:
The points were added together and divided by the number of rats in each group to give an ulcer score, and the difference in the mean scores of the medicated and control group was expressed as percent inhibition of ulceration. Alternatively, the results can be expressed as a ratio of the total number of rats with any degree of ulceration (as the numerator) to the total number of rats in the test group (as the denominator).

SMILES | Anti-Secretory % Inhibition of Free Acid ([1]; dose 12.5 (mg/kg)) | Anti-Secretory pH ([1]; dose 12.5 (unit not in table; mg/kg)) | Anti-Secretory pH ([1]; dose 25 (mg/kg)) | Anti-Secretory % Inhibition of Free Acid ([1]; dose 25 (mg/kg)) | Anti-Secretory pH ([1]; dose 50 (mg/kg)) | Anti-Secretory % Inhibition of Free Acid ([1]; dose 50 (mg/kg)) | Anti-Secretory pH ([1]; dose 100 (mg/kg)) | Anti-Secretory % Inhibition of Free Acid ([1]; dose 100 (mg/kg)) | Anti-Ulcer % Inhibition ([2]; dose 25 (mg/kg)) | Anti-Ulcer % Inhibition ([2]; dose 50 (mg/kg)) | Anti-Ulcer % Inhibition ([2]; dose 100 (mg/kg)) | anti-secretory activity (in words) ([1]; in vivo) | Anti-Secretory pH ([1]; dose 200 (mg/kg)) | Anti-Secretory % Inhibition of Free Acid ([1]; dose 200 (mg/kg))
Cc1c(C)c(C)n(CC(N)=O)c1C [Example 1, 2,3,4,5-tetramethyl-1-pyrroleacetamide] | 44% | 1.3 | 1.5 | 49% | 2.9 | 83% | 3.6 | 91% | 61% | 87% | 94% |  |  | 
NC(=O)Cn1cccc1 [Reference, pyrrole-1-acetamide, reference compound] |  |  |  |  |  |  | 1.7 | 46% |  |  |  | has anti-secretory activity |  | 
Cc1ccc(C)n1CC(N)=O [Example 2, 2,5-dimethyl-1-pyrroleacetamide] |  |  |  |  | 1.7 | 21% | 2.7 and 2.6 | 78% and 63% |  | 40% |  |  | 4.6 | 100%
Cc1c(C)c(C)n(CCC(N)=O)c1C [Example 3, β-(2,3,4,5-tetramethyl-1-pyrrole)propionamide] |  |  |  |  |  |  | 2.4 | 60% | 36% | 66% |  |  |  | 
